One assay concerns barnyardgrass. Nature of the assay: Test A barnyardgrass. The class given is in vivo, Echinochloa crus-galli. Particulars: 0 to 10 scale where 0 is no effect and 10 is complete control. The procedure: (§1) Seeds of barnyardgrass (Echinochloa crus-galli), crabgrass (Digitaria spp.), morningglory (Ipomoea spp.), and velvetleaf (Abutilon theophrasti) were planted into a sandy loam soil and treated preemergence by soil drench with test chemicals formulated in a non-phytotoxic solvent mixture which includes a surfactant At the same time, these crop and weed species were also treated postemergence sprayed to runoff, with test chemicals formulated in the same manner.
(§2) Plants ranged in height from two to eighteen cm and were in the one to two leaf stage for the postemergence treatment. Treated plants and untreated controls were maintained in a greenhouse for approximately eleven days, after which all treated plants were compared to untreated controls and visually evaluated for injury. Plant response ratings, summarized in Table A, are based on a 0 to 10 scale where 0 is no effect and 10 is complete control.

The test system of a further assay is velvetleaf. Nature of the assay: Test A velvetleaf. Type of assay: in vivo, Abutilon theophrasti. Particulars: 0 to 10 scale where 0 is no effect and 10 is complete control. As to the method: as §1, §2
The next assay relates to giant foxtail. Nature of the assay: Test C postemergence giant foxtail. The class given is in vivo, Setaria faberii. The settings on record: 0 to 100 scale, 0 no effect, 100 complete control. The method in brief: (§3)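 In this greenhouse assay, treated and untreated plants were kept for approximately 14 to 21 days following postemergence application, then rated by eye on a scale from 0 (no effect) to 100 (complete control).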

In another assay the test system is chickweed. Nature of the assay: Test E chickweed. Type of assay: in vivo, Stellaria media. The settings on record: Preemergence.
In another assay the test system is deadnettle. Nature of the assay: Test E deadnettle. Type of assay: in vivo, Lamium amplexicaule. The settings on record: Postemergence. The procedure:
(§4) Compounds evaluated in this test were formulated in a non-phytotoxic solvent mixture which included a surfactant and applied to plants that were in the 1- to 4-leaf stage (postemergence application). A mixture of sandy loam soil and greenhouse potting mix in a 60:40 ratio was used for the postemergence test.
(§5) Plantings of these crops and weed species were adjusted to produce plants of appropriate size for the postemergence test. All plant species were grown using normal greenhouse practices. Crop and weed species include annual bluegrass (Poa annua), blackgrass (Alopecurus myosuroides), black nightshade (Solanum nigra), chickweed (Stellaria media), common poppy (Papaver rhoeas), deadnettle (Lamium amplexicaule), downy brome (Bromus tectorum), field violet (Viola arvensis), galium (Galium aparine), green foxtail (Setaria viridis), Italian ryegrass (Lolium multiflorum), jointed goatgrass (Aegilops cylindrica), kochia (Kochia scoparia), lambsquarters (Chenopodium album), littleseed canarygrass (Phalaris minor), rape (Brassica napus), redroot pigweed (Amaranthus retroflexus), Russian thistle (Salsola kali), scentless chamomile (Matricaria inodora), spring barley (Hordeum vulgare), sugar beet (Beta vulgaris), sunflower (Helianthus annuus), ivyleaf speedwell (Veronica hederaefolia), spring wheat (Triticum aestivum), winter wheat (Triticum aestivum), wild buckwheat (Polygonum convolvulus), wild mustard (Sinapis arvensis), wild oat (Avena fatua), windgrass (Apera spica-venti) and winter barley (Hordeum vulgare).
(§6) Treated plants and untreated controls were maintained in a greenhouse for approximately 21 to 28 days, after which all treated plants were compared to untreated controls and visually evaluated. […] A dash response (-) means no test result.

Another assay concerns common ragweed. Nature of the assay: Test C postemergence common ragweed. Type of assay: in vivo, Ambrosia elatior. The settings on record: 0 to 100 scale, 0 no effect, 100 complete control. The method in brief: as §3
Another assay relates to spring wheat. The assay can be described thus: Test E spring wheat. The class given is in vivo, Triticum aestivum. Particulars: Postemergence. The procedure:
as §4, §5, §6

In a further assay the test system is field violet. Nature of the assay: Test E field violet. The class given is in vivo, Viola arvensis. Particulars: Postemergence. As to the method:
as §4, §5, §6

The test system of another assay is downy brome. The assay can be described thus: Test E downy brome. The class given is in vivo, Bromus tectorum. The settings on record: Postemergence; for Plant response rating, Downy brome: 0 to 100 scale; for Plant response rating, Downy brortie: Rate 250 g/ha, 0 to 100 scale (0 no effect, 100 complete control). The method in brief:
(§7)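 Compounds formulated in non-phytotoxic solvent mixture with surfactant; for postemergence, sprayed on plants at 1- to 4-leaf stage grown in 60:40 sandy loam/greenhouse potting mix. Kept in greenhouse ~21 to 28 days, then visually rated against untreated controls.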

A further assay relates to johnsongrass. Nature of the assay: Test C postemergence johnsongrass. The class given is in vivo, Sorghum halepense. The settings on record: 0 to 100 scale, 0 no effect, 100 complete control. The procedure:
Compounds evaluated in this test were formulated in a non-phytotoxic solvent mixture which included a surfactant and applied to plants that were grown for various periods of time before treatment (postemergence application). A mixture of sandy loam soil and greenhouse potting mix in a 60:40 ratio was used for the postemergence test.
Plantings of these crops and weed species were adjusted to produce plants of appropriate size for the postemergence test. All plant species were grown using normal greenhouse practices. Crop and weed species include arrowleaf sida (Sida rhombifolia), barnyardgrass (Echinochloa crus-galli), cocklebur (Xanthium strumarium), common ragweed (Ambrosia elatior), corn (Zea mays), cotton (Gossypium hirsutum), eastern black nightshade (Solanum ptycanthum), fall panicum (Panicum dichotomiflorum), field bindweed (Convolvulus arvensis), giant foxtail (Setaria faberii), hairy beggarticks (Bidens pilosa), ivyleaf morningglory (Ipomoea hederacea), johnsongrass (Sorghum halepense), ladysthumb smartweed (Polygonum persicaria), lambsquarters (Chenopodium album), large crabgrass (Digitaria sanguinalis), purple nutsedge (Cyperus rotundus), redroot pigweed (Amaranthus retroflexus), soybean (Glycine max), surinam grass (Brachiaria decumbens), velvetleaf (Abutilon theophrasti) and wild poinsettia (Euphorbia heterophylla).
Treated plants and untreated controls were maintained in a greenhouse for approximately 14, to 21 days, after which all treated plants were compared to untreated controls and visually evaluated. Plant response ratings, summarized in Table C, were based upon a 0 to 100 scale where 0 was no effect and 100 was complete control. A dash response (−) means no test result.

In the next assay the test system is wild mustard. The assay can be described thus: Test E wild mustard. Type of assay: in vivo, Sinapis arvensis. The settings on record: Postemergence. The method, boiled down:
as §7

The next assay deals with scentless chamomile. Nature of the assay: Test E scentless chamomile. Type of assay: in vivo, Matricaria inodora. Particulars: Postemergence. The method in brief:
as §7

The next assay has as its system sugar beet. Nature of the assay: Test E sugar beet. The class given is in vivo, Beta vulgaris. The settings on record: Postemergence. The method, boiled down: as §7
Another assay relates to windgrass. The assay can be described thus: Test E windgrass. The class given is in vivo, Apera spica-venti. Particulars: Preemergence.
Where [1] appears, read: Rate 62 g/ha, 0 to 100 scale, 0 no effect, 100 complete control.
[2] abbreviates: Rate 125 g/ha, 0 to 100 scale (0 no effect, 100 complete control).
The mark [3] stands for this setting: Rate 250 g/ha, 0 to 100 scale (0 no effect, 100 complete control).
Where [4] appears, read: Rate 500 g/ha, 0 to 100 scale where 0 is no effect and 100 is complete control.
[5] abbreviates: Rate 500 g/ha, 0 to 100 scale, 0 no effect, 100 complete control.

With `Cc1ccccc1Cn1c(=O)on(C(=O)N(c2ccc(Cl)cc2)C(C)C)c1=O` [Compound 136], the “Plant response rating, Barnyardgrass” value with barnyardgrass (Postemergence, Rate 1000 g/ha) is given as 4; with barnyardgrass (Pre-emergence, Rate 2000 g/ha) it was 9. Besides, the “Plant response rating, Velvetleaf” value in the assay with velvetleaf (Postemergence, Rate 1000 g/ha) is reported as 2; in the assay on velvetleaf (Pre-emergence, Rate 2000 g/ha), 0.

On to `CCOC(=O)Cn1c(=O)on(C(=O)N(c2ccc(F)cc2)C(C)C)c1=O` [Compound 128], for which the “Plant response rating, Barnyardgrass” value with barnyardgrass (Postemergence, Rate 1000 g/ha) is listed as 0; with barnyardgrass (Pre-emergence, Rate 2000 g/ha) it was 0. The “Plant response rating, Velvetleaf” value with velvetleaf (Postemergence, Rate 1000 g/ha) was 0; in the assay on velvetleaf (Pre-emergence, Rate 2000 g/ha) it was 0.

Turning to `CCn1c(=O)on(C(=O)N(c2ccc(F)cc2)C(C)C)c1=O` [Compound 107], the figures for the “Plant response rating, Giant foxtail” value in the assay with giant foxtail (Rate 280 g/ha), in the assay with giant foxtail (Rate 560 g/ha) and in the assay on giant foxtail (Rate 1120 g/ha) were 70, 95 and 95, respectively. For the same compound, the “Plant response rating, Chickweed” value with chickweed (setting [1]) was 80; with chickweed (setting [2]), 50; in the assay with chickweed (Rate 250 g/ha, 0 to 100 scale) it was 50. For the same compound, the “Plant response rating, Deadnettle” value in the assay on deadnettle (Rate 62 g/ha, 0 to 100 scale) was determined as 0; in the assay on deadnettle (Rate 125 g/ha, 0 to 100 scale) it was 5; in the assay with deadnettle (setting [3]), 50. The “Plant response rating Common ragweed” value came to 0 with common ragweed (Rate 140 g/ha), 50 in the assay on common ragweed (Rate 280 g/ha), 50 with common ragweed (Rate 560 g/ha) and 50 in the assay on common ragweed (Rate 1120 g/ha). In addition, the “Plant response rating, Spring Wheat” value stood at 0 in the assay with spring wheat (Rate 62 g/ha, 0 to 100 scale); 5 with spring wheat (Rate 125 g/ha, 0 to 100 scale); 10 in the assay on spring wheat (setting [3]). In addition, the “Plant response rating, Field violet” value in the assay on field violet (Rate 62 g/ha, 0 to 100 scale) is 0; in the assay with field violet (Rate 125 g/ha, 0 to 100 scale) it was 25; with field violet (setting [3]), 0. Also, the “Plant response rating, Downy brome” value in the assay on downy brome (Rate 62 g/ha) is recorded as 0; in the assay with downy brome (Rate 125 g/ha), 10. The “Plant response rating, Downy brortie” value in the assay on downy brome came out at 0. Besides, the “Plant response rating Johnsongrass” value stood at 35 with johnsongrass (Rate 140 g/ha), 50 in the assay with johnsongrass (Rate 280 g/ha), 90 in the assay on johnsongrass (Rate 560 g/ha) and 90 with johnsongrass (Rate 1120 g/ha). Further, the “Plant response rating, Wild mustard” value is recorded as 5 in the assay with wild mustard (Rate 62 g/ha, 0 to 100 scale); 90 with wild mustard (Rate 125 g/ha, 0 to 100 scale); 40 with wild mustard (setting [3]). Moreover, the “Plant response rating, Scentless chamo” value was found to be 10 in the assay on scentless chamomile (Rate 62 g/ha, 0 to 100 scale); 0 with scentless chamomile (Rate 125 g/ha, 0 to 100 scale); 10 with scentless chamomile (setting [3]). In addition, the “Plant response rating, Sugar beet” value is reported as 10 in the assay on sugar beet (Rate 62 g/ha, 0 to 100 scale); 10 with sugar beet (Rate 125 g/ha, 0 to 100 scale); 40 in the assay on sugar beet (setting [3]). Further, the “Plant response rating, Windgrass” value with windgrass (setting [1]) and in the assay with windgrass (setting [2]) was 100 each time.

Take `CCn1c(=O)on(C(=O)N(c2ccc(F)cc2F)C(C)C)c1=O` [Compound 116]: the “Plant response rating, Giant foxtail” value with giant foxtail (Rate 280 g/ha) is reported as 60; with giant foxtail (Rate 560 g/ha), 60; in the assay with giant foxtail (Rate 1120 g/ha), 85. Further, the “Plant response rating, Chickweed” value in the assay on chickweed (setting [2]) came to 100; in the assay on chickweed (Rate 250 g/ha, 0 to 100 scale) it was 100; in the assay with chickweed (setting [4]), 100. The “Plant response rating, Deadnettle” value is 0 with deadnettle (Rate 62 g/ha, 0 to 100 scale); 0 in the assay with deadnettle (Rate 125 g/ha, 0 to 100 scale); 20 with deadnettle (setting [3]); 50 with deadnettle (setting [5]). Also, the “Plant response rating Common ragweed” value in the assay on common ragweed (Rate 140 g/ha), in the assay on common ragweed (Rate 280 g/ha), in the assay with common ragweed (Rate 560 g/ha) and in the assay with common ragweed (Rate 1120 g/ha) was 0 each time. Further, the “Plant response rating, Spring Wheat” value came to 5 with spring wheat (Rate 62 g/ha, 0 to 100 scale); 0 in the assay with spring wheat (Rate 125 g/ha, 0 to 100 scale); 10 in the assay on spring wheat (setting [3]); 10 with spring wheat (setting [5]). The “Plant response rating, Field violet” value is recorded as 60 in the assay on field violet (Rate 62 g/ha, 0 to 100 scale); 0 with field violet (Rate 125 g/ha, 0 to 100 scale); 0 with field violet (setting [3]); 0 in the assay with field violet (setting [5]). The “Plant response rating, Downy brome” value in the assay on downy brome (Rate 62 g/ha) is recorded as 0; in the assay with downy brome (Rate 125 g/ha), 0; in the assay on downy brome (Rate 500 g/ha, 0 no effect, 100 complete control), 60. Also, in the assay with downy brome, the “Plant response rating, Downy brortie” value is recorded as 30. In addition, the “Plant response rating Johnsongrass” value is reported as 10 with johnsongrass (Rate 140 g/ha), 40 in the assay with johnsongrass (Rate 280 g/ha), 60 with johnsongrass (Rate 560 g/ha) and 80 with johnsongrass (Rate 1120 g/ha). In addition, the “Plant response rating, Wild mustard” value in the assay with wild mustard (Rate 62 g/ha, 0 to 100 scale) is 70; in the assay with wild mustard (Rate 125 g/ha, 0 to 100 scale) it was 20; with wild mustard (setting [3]), 40; with wild mustard (setting [5]) it was 40. The “Plant response rating, Scentless chamo” value in the assay with scentless chamomile (Rate 62 g/ha, 0 to 100 scale) is listed as 50; in the assay on scentless chamomile (Rate 125 g/ha, 0 to 100 scale), 0; in the assay on scentless chamomile (setting [3]) it was 0; in the assay with scentless chamomile (setting [5]) it was 40. Moreover, the “Plant response rating, Sugar beet” value in the assay with sugar beet (Rate 62 g/ha, 0 to 100 scale) is listed as 0; in the assay with sugar beet (Rate 125 g/ha, 0 to 100 scale), 0; with sugar beet (setting [3]), 0; with sugar beet (setting [5]), 0. Also, the “Plant response rating, Windgrass” value with windgrass (setting [2]) and in the assay with windgrass (setting [4]) was 100 throughout.
